Reference: ChEMBL document CHEMBL4765323, “Design, synthesis, and biological evaluation of novel miconazole analogues containing selenium as potent antifungal agents” (Eur J Med Chem, 2020)
≈ marks a conversion by molar mass, not a printed value.

Legend:
[1] = test system: Candida albicans; experiment: Antifungal activity against Candida albicans CPCC400616 measured after 24 hrs by micro-broth dilution assay; assay type: functional
[2] = test system: Candida albicans; experiment: Antifungal activity against Candida albicans ATCC SC5314 measured after 24 hrs by micro-broth dilution assay; assay type: functional
[3] = test system: [Candida] zeylanoides; experiment: Antifungal activity against Candida zeylanoides CMGCC2.3739 measured after 24 hrs by micro-broth dilution assay; assay type: functional; details: Dujonia zeylanoides
[4] = test system: Cryptococcus neoformans; experiment: Antifungal activity against Cryptococcus neoformans CGMCC2.3161 measured after 72 hrs by micro-broth dilution assay; assay type: functional
[5] = test system: Pichia kudriavzevii; experiment: Antifungal activity against Candida krusei AS 2.1045 measured after 24 hrs by micro-broth dilution assay; assay type: functional
[6] = test system: Nakaseomyces glabratus; experiment: Antifungal activity against clinical isolate Candida glabrata measured after 24 hrs by micro-broth dilution assay; assay type: functional
[7] = test system: Candida parapsilosis; experiment: Antifungal activity against Candida parapsilosis ATCC 22019 measured after 24 hrs by micro-broth dilution assay; assay type: functional; details: Lodderomyces parapsilosis
[8] = test system: Aspergillus fumigatus; experiment: Antifungal activity against Aspergillus fumigatus CGMCC 3.7795 measured after 72 hrs by micro-broth dilution assay; assay type: functional
[9] = test system: Candida albicans; experiment: Fungicidal activity against Candida albicans CPCC400616 measured after 48 hrs; assay type: functional
[10] = Ratio of MFC for fungicidal activity against Candida albicans CPCC400616 to MIC for Antifungal activity against Candida albicans CPCC400616; assay type: functional; details: time 24 hrs
[11] = test system: Candida albicans; experiment: Inhibition of CYP51 in azole-resistant Candida albicans ATCC […] assessed as ergosterol level at 0.03125 ug/ml incubated for 16 hrs by LC-MS analysis relative to control; design: scale not given: the % may be the effect or the level left; details: dose 0.03125 µg/ml
[12] = test system: Candida albicans; experiment: Inhibition of CYP51 in azole-resistant Candida albicans ATCC […] assessed as ergosterol level at 0.125 ug/ml incubated for 16 hrs by LC-MS analysis relative to control; design: scale not given: the % may be the effect or the level left; details: dose 0.125 µg/ml
[13] = test system: Candida albicans; experiment: Inhibition of CYP51 in azole-resistant Candida albicans ATCC […] assessed as ergosterol level at 0.5 ug/ml incubated for 16 hrs by LC-MS analysis relative to control; design: scale not given: the % may be the effect or the level left; details: dose 0.5 µg/ml
[14] = test system: Candida albicans; experiment: Inhibition of CYP51 in azole-resistant Candida albicans ATCC […] assessed as ergosterol level at 2 ug/ml incubated for 16 hrs by LC-MS analysis relative to control; design: scale not given: the % may be the effect or the level left; details: dose 2.0 µg/ml
[15] = test system: Candida albicans; experiment: Antibiofilm activity against FCZ-Resistant Candida albicans CPCC400616 assessed as sessile minimum inhibitory concentration of biofilm formation at 50% after 1.5 hrs by XTT assay; assay type: functional
[16] = test system: Candida albicans; experiment: Antibiofilm activity against FCZ-Resistant Candida albicans CPCC400616 assessed as sessile minimum inhibitory concentration of biofilm formation at 50% after 3 hrs by XTT assay; assay type: functional
[17] = test system: Candida albicans; experiment: Antibiofilm activity against FCZ-Resistant Candida albicans CPCC400616 assessed as sessile minimum inhibitory concentration of biofilm formation at 50% after 6 hrs by XTT assay; assay type: functional
[18] = test system: Candida albicans; experiment: Antibiofilm activity against FCZ-Resistant Candida albicans CPCC400616 assessed as sessile minimum inhibitory concentration of biofilm formation at 50% after 24 hrs by XTT assay; assay type: functional
[19] = test system: Candida albicans; experiment: Antibiofilm activity against FCZ-Resistant Candida albicans CPCC400616 assessed as sessile minimum inhibitory concentration of biofilm formation at 80% after 1.5 hrs by XTT assay; assay type: functional
[20] = test system: Candida albicans; experiment: Antibiofilm activity against FCZ-Resistant Candida albicans CPCC400616 assessed as sessile minimum inhibitory concentration of biofilm formation at 80% after 3 hrs by XTT assay; assay type: functional
[21] = test system: Candida albicans; experiment: Antibiofilm activity against FCZ-Resistant Candida albicans CPCC400616 assessed as sessile minimum inhibitory concentration of biofilm formation at 80% after 6 hrs by XTT assay; assay type: functional
[22] = test system: Candida albicans; experiment: Antibiofilm activity against FCZ-Resistant Candida albicans CPCC400616 assessed as sessile minimum inhibitory concentration of biofilm formation at 80% after 24 hrs by XTT assay; assay type: functional
[23] = Ratio of hemolysis activity in rabbit RBC to MIC for Candida albicans; assay type: toxicity; details: rabbit red blood cells (RBC)
[24] = test system: Candida albicans; experiment: Inhibition of CYP51 in azole-resistant Candida albicans ATCC […] assessed as Obtusifoliol level at 0.03125 ug/ml incubated for 16 hrs by LC-MS analysis relative to control; design: scale not given: the % may be the effect or the level left; details: dose 0.03125 µg/ml
[25] = test system: Candida albicans; experiment: Inhibition of CYP51 in azole-resistant Candida albicans ATCC […] assessed as Obtusifoliol level at 0.125 ug/ml incubated for 16 hrs by LC-MS analysis relative to control; design: scale not given: the % may be the effect or the level left; details: dose 0.125 µg/ml
[26] = test system: Candida albicans; experiment: Inhibition of CYP51 in azole-resistant Candida albicans ATCC […] assessed as Obtusifoliol level at 0.5 ug/ml incubated for 16 hrs by LC-MS analysis relative to control; design: scale not given: the % may be the effect or the level left; details: dose 0.5 µg/ml
[27] = test system: Candida albicans; experiment: Inhibition of CYP51 in azole-resistant Candida albicans ATCC […] assessed as Obtusifoliol level at 2 ug/ml incubated for 16 hrs by LC-MS analysis relative to control; design: scale not given: the % may be the effect or the level left; details: dose 2.0 µg/ml
[28] = test system: Candida albicans; experiment: Inhibition of CYP51 in azole-resistant Candida albicans ATCC […] assessed as Obtusifoliol level at 8 ug/ml incubated for 16 hrs by LC-MS analysis relative to control; design: scale not given: the % may be the effect or the level left; details: dose 8.0 µg/ml
[29] = test system: Candida albicans; experiment: Inhibition of CYP51 in azole-resistant Candida albicans ATCC […] assessed as Lanosterol level at 0.03125 ug/ml incubated for 16 hrs by LC-MS analysis relative to control; design: scale not given: the % may be the effect or the level left; details: dose 0.03125 µg/ml
[30] = test system: Candida albicans; experiment: Inhibition of CYP51 in azole-resistant Candida albicans ATCC […] assessed as Lanosterol level at 0.125 ug/ml incubated for 16 hrs by LC-MS analysis relative to control; design: scale not given: the % may be the effect or the level left; details: dose 0.125 µg/ml
[31] = test system: Candida albicans; experiment: Inhibition of CYP51 in azole-resistant Candida albicans ATCC […] assessed as Lanosterol level at 0.5 ug/ml incubated for 16 hrs by LC-MS analysis relative to control; design: scale not given: the % may be the effect or the level left; details: dose 0.5 µg/ml
[32] = test system: Candida albicans; experiment: Inhibition of CYP51 in azole-resistant Candida albicans ATCC […] assessed as Lanosterol level at 2 ug/ml incubated for 16 hrs by LC-MS analysis relative to control; design: scale not given: the % may be the effect or the level left; details: dose 2.0 µg/ml
[33] = test system: Candida albicans; experiment: Inhibition of CYP51 in azole-resistant Candida albicans ATCC […] assessed as Lanosterol level at 8 ug/ml incubated for 16 hrs by LC-MS analysis relative to control; design: scale not given: the % may be the effect or the level left; details: dose 8.0 µg/ml
[34] = test system: Candida albicans; experiment: Inhibition of CYP51 in azole-resistant Candida albicans ATCC […] assessed as Eburicol level at 0.03125 ug/ml incubated for 16 hrs by LC-MS analysis relative to control; design: scale not given: the % may be the effect or the level left; details: dose 0.03125 µg/ml
[35] = test system: Candida albicans; experiment: Inhibition of CYP51 in azole-resistant Candida albicans ATCC […] assessed as Eburicol level at 0.125 ug/ml incubated for 16 hrs by LC-MS analysis relative to control; design: scale not given: the % may be the effect or the level left; details: dose 0.125 µg/ml
[36] = test system: Candida albicans; experiment: Inhibition of CYP51 in azole-resistant Candida albicans ATCC […] assessed as Eburicol level at 0.5 ug/ml incubated for 16 hrs by LC-MS analysis relative to control; design: scale not given: the % may be the effect or the level left; details: dose 0.5 µg/ml
[37] = test system: Candida albicans; experiment: Inhibition of CYP51 in azole-resistant Candida albicans ATCC […] assessed as Eburicol level at 2 ug/ml incubated for 16 hrs by LC-MS analysis relative to control; design: scale not given: the % may be the effect or the level left; details: dose 2.0 µg/ml
[38] = test system: Candida albicans; experiment: Inhibition of CYP51 in azole-resistant Candida albicans ATCC […] assessed as Eburicol level at 8 ug/ml incubated for 16 hrs by LC-MS analysis relative to control; design: scale not given: the % may be the effect or the level left; details: dose 8.0 µg/ml
[39] = test system: Candida albicans; experiment: Inhibition of CYP51 in azole-resistant Candida albicans ATCC […] assessed as inhibition of ergosterol biosynthesis by measuring ergosterol content at 8 ug/ml incubated for 16 hrs by LC-MS analysis relative to control; design: scale not given: the % may be the effect or the level left; details: dose 8.0 µg/ml
[40] = test system: Candida albicans; experiment: Antifungal activity against fluconazole-resistant Candida albicans CaR measured after 24 hrs by micro-broth dilution assay; assay type: functional
[41] = test system: Candida albicans; experiment: Antifungal activity against fluconazole-resistant Candida albicans 17 measured after 24 hrs by micro-broth dilution assay; assay type: functional
[42] = test system: Candida albicans; experiment: Antifungal activity against fluconazole-resistant Candida albicans 632 measured after 24 hrs by micro-broth dilution assay; assay type: functional
[43] = test system: Candida albicans; experiment: Antifungal activity against Candida albicans 901 measured after 24 hrs by micro-broth dilution assay; assay type: functional
[44] = test system: Candida albicans; experiment: Antifungal activity against fluconazole-resistant Candida albicans strain 904 measured after 24 hrs by micro-broth dilution assay; assay type: functional

Clc1ccc(COC(Cn2ccnc2)c2ccc(Cl)cc2Cl)c(Cl)c1 (stereo not given) [MICONAZOLE]
MIC [1]: 0.25 µg/mL (≈ 0.601 µM)
MIC [2]: 0.03 µg/mL (≈ 0.0721 µM)
MIC [3]: 1 µg/mL (≈ 2.4 µM)
MIC [4]: 0.5 µg/mL (≈ 1.2 µM)
MIC [5]: 0.5 µg/mL (≈ 1.2 µM)
MIC [6]: 0.5 µg/mL (≈ 1.2 µM)
MIC [7]: 0.25 µg/mL (≈ 0.601 µM)
MIC [8]: 2 µg/mL (≈ 4.81 µM)
MIC [9]: 2 µg/mL (≈ 4.81 µM)
MFC/MIC ratio [10]: 8
Activity [11]: 11.3%
Activity [12]: 7.3%
Activity [13]: 8.3%
Activity [14]: 5.49%
Activity [15]: 16 µg/mL
Activity [16]: 32 µg/mL
Activity [17]: >128 µg/mL
Activity [18]: >128 µg/mL
Activity [19]: 128 µg/mL
Activity [20]: 128 µg/mL
Activity [21]: >128 µg/mL
Activity [22]: >128 µg/mL
selectivity ratio [23]: 8
Activity [24]: 2.9%
Activity [25]: 7.2%
Activity [26]: 6.1%
Activity [27]: 9.7%
Activity [28]: 14.6%
Activity [29]: 12.4%
Activity [30]: 14.1%
Activity [31]: 8.9%
Activity [32]: 6.4%
Activity [33]: 7.8%
Activity [34]: 2.9%
Activity [35]: 63.5%
Activity [36]: 64.8%
Activity [37]: 80.7%
Activity [38]: 74.2%
Activity [39]: 0%

Fc1ccc(C(Cn2ccnc2)[Se]Cc2ccc(Cl)cc2Cl)c(F)c1 (stereo not given)
MIC [1]: 0.03 µg/mL (≈ 0.0672 µM)
MIC [2]: 0.13 µg/mL (≈ 0.291 µM)
MIC [3]: 0.5 µg/mL (≈ 1.12 µM)
MIC [4]: 0.25 µg/mL (≈ 0.56 µM)
MIC [5]: 0.06 µg/mL (≈ 0.134 µM)
MIC [6]: 1 µg/mL (≈ 2.24 µM)
MIC [7]: 0.03 µg/mL (≈ 0.0672 µM)
MIC [8]: 0.5 µg/mL (≈ 1.12 µM)
MIC [40]: 16 µg/mL (≈ 35.9 µM)
MIC [41]: 1 µg/mL (≈ 2.24 µM)
MIC [42]: 2 µg/mL (≈ 4.48 µM)
MIC [43]: 0.5 µg/mL (≈ 1.12 µM)
MIC [44]: 2 µg/mL (≈ 4.48 µM)
MIC [9]: 0.125 µg/mL (≈ 0.28 µM)
MFC/MIC ratio [10]: 4
selectivity ratio [23]: 64
